Data as given in article PMC5765548 (Journal of medicinal chemistry, 2017).

Legend:
ALDH1B1 = molecular target: T1, ALDH1B1 (Homo sapiens, UniProt P30837); conditions: read-out: IC50 ALDH1B1; 200 μM propionaldehyde, 500 μM NAD+, 25 °C
T1 sequence (P30837 18-517): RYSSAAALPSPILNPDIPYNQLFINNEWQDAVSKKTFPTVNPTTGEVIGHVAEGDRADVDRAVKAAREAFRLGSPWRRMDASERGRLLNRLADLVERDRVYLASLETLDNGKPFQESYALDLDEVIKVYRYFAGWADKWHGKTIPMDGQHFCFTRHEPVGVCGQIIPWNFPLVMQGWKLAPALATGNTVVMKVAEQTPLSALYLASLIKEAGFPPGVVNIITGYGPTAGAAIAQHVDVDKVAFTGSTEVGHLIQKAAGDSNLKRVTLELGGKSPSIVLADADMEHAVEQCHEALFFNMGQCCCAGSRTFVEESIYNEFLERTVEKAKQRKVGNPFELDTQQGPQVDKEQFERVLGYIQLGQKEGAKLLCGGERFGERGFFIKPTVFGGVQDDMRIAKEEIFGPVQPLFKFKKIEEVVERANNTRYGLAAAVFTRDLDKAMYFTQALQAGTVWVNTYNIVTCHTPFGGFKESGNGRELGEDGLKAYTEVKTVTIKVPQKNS

ALDH3A1 = molecular target: T2, ALDH3A1 (Homo sapiens, UniProt P30838); assay: ALDH3A1 dehydrogenase activity; format: biochemical; conditions: read-out: IC50 ALDH3A1; 300 μM benzaldehyde, 300 μM NADP+, pH 7.5
T2 sequence (P30838 1-453): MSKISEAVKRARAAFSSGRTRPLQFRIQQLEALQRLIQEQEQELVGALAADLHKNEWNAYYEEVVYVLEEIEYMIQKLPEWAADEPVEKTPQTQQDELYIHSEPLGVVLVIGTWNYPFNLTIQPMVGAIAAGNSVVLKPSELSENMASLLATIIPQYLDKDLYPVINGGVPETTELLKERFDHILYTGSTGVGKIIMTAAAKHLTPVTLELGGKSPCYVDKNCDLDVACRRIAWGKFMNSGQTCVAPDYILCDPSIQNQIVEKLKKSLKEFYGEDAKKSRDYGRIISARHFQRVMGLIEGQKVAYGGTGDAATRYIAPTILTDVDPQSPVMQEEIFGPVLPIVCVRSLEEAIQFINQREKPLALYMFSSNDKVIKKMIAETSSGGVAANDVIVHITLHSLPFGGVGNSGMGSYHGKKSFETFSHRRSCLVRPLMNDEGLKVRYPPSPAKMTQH

ALDH1A3 = molecular target: T3, ALDH1A3 (Homo sapiens, UniProt P47895); conditions: read-out: IC50 ALDH1A3; 100 μM propionaldehyde, 200 μM NAD+, 1% DMSO, pH 7.5, 25 °C
T3 sequence (P47895 1-512): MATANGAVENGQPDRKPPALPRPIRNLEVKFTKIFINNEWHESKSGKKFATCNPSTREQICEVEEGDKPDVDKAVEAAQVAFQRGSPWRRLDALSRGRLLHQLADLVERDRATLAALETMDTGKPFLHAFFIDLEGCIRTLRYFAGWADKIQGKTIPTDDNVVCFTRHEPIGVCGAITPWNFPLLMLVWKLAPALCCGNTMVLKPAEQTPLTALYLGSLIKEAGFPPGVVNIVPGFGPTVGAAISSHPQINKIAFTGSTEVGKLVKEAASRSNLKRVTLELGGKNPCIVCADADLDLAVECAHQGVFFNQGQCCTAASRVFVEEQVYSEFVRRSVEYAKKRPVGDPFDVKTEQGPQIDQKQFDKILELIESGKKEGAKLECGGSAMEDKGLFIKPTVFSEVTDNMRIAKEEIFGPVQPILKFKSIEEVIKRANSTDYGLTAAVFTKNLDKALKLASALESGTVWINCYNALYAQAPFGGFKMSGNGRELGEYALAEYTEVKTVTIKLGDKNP

Measured: IC50

COC(=O)C(C)Oc1ccc2c(C)cc(=O)oc2c1 (stereo not drawn) [Compound 4]
> 100 µM: all assays above
